According to PubChem BioAssay (NCI):
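Cultured in 96-well plates, cells were exposed to test compound for 48 hours across five concentrations. At the GI50, growth is halved. TGI denotes the concentration required for complete inhibition of growth.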

What was measured:
Test in all cases: NCI anticancer screen, dose series, 48 h
[1] = system: T-47D breast
[2] = system: 786-0 renal
[3] = system: EKVX NSCLC
[4] = system: M14 melanoma
[5] = system: SR leukemia
[6] = system: HL-60(TB) leukemia
[7] = system: OVCAR-3 ovarian
[8] = system: SK-OV-3 ovarian
[9] = system: LOX IMVI melanoma
[10] = system: OVCAR-4 ovarian

SMILES | TGI [1] [µM] | TGI [2] [µM] | TGI [3] [µM] | TGI [4] [µM] | TGI [5] [µM] | TGI [6] [µM] | TGI [7] [µM] | TGI [8] [µM] | TGI [9] [µM] | TGI [10] [µM] | GI50 [1] [µM] | GI50 [3] [µM] | GI50 [4] [µM] | GI50 [5] [µM] | GI50 [6] [µM] | GI50 [7] [µM] | GI50 [8] [µM] | GI50 [9] [µM] | GI50 [10] [µM]
Oc1ccccc1/C=N/Nc1nnc2c3ccccc3c3ccccc3c2n1 | > 100 | > 100 | > 100 | > 100 | > 100 | > 100 | 44.2 | > 100 | > 100 | > 100 |  |  |  |  |  |  |  |  | 
Fc1c(F)c(C(F)(F)F)c(F)c(F)c1N/N=C\c1c[nH]c2ccccc12 | 18.7 | 14.5 | 11.9 | 4.21 | 9.19 | 9.25 | 4.7 | 12.9 | 12.1 | 6.72 |  |  |  |  |  |  |  |  | 
Fc1cc(C2=C[C@H](c3ccc(Cl)cc3)NC(=S)N2)c(Cl)cc1Cl | > 100 | > 100 | > 100 | > 100 | > 100 | 65.7 | > 100 | > 100 | > 100 | > 100 |  |  |  |  |  |  |  |  | 
NC(=O)C(Nc1c(Cl)cccc1Cl)c1cc2cc(Br)ccc2nc1Cl (stereo not drawn) | > 100 | > 100 | > 100 | > 100 | 56.5 | > 100 | > 100 | > 100 | > 100 | > 100 |  |  |  |  |  |  |  |  | 
Cc1c2ccncc2cc2c1sc1ccncc12 | 7.44 | 18 | 15.5 | 13.5 | 1.67 | 6.79 | 27.7 | 29 | 25.6 | 25.2 |  |  |  |  |  |  |  |  | 
COc1ccc(/C=C2\OC(=O)C(Cl)=C2c2ccc(OC)cc2)cc1 | > 100 | > 100 | > 100 | > 100 | > 100 | > 100 | > 100 | > 100 | > 100 | > 100 |  |  |  |  |  |  |  |  | 
NC(=O)c1cc2ccccc2oc1=Nc1ccccc1 | > 100 | > 100 | > 100 | > 100 | > 100 | > 100 | > 100 | > 100 | > 100 | > 100 |  |  |  |  |  |  |  |  | 
COc1ccc2c(c1)CC[C@@H]1[C@@H]2CC[C@]2(C)C(=O)C3(CCCCC3)C[C@@H]12 | > 100 |  | > 100 | > 100 | > 100 | > 100 | > 100 | > 100 | > 100 | > 100 | > 100 | > 100 | > 100 | > 100 | > 100 | > 100 | > 100 | > 100 | > 100
